The subject of the first test is Utrophin A promoter linked to a luciferase reporter gene. Nature of the test: Luciferase reporter assay (murine H2K cells), H2K/mdx/Utro A reporter cell line. Type of test: cell-based. As to conditions: 48 h; test compound concentration 0.3 μM; mdx mouse H2K Utrophin A reporter cells; read-out: Activity (luciferase level relative to control). On the procedure: Luciferase Reporter Assay (Murine H2K Cells)
The cell line used for the screen is an immortalized mdx mouse H2K cell line that has been stably transfected with a plasmid containing ≈5 kb fragment of the Utrophin A promoter including the first untranslated exon linked to a luciferase reporter gene.
Under conditions of low temperature and interferon containing media, the cells remain as myoblasts. These are plated into 96 well plates and cultured in the presence of compound for three days. The level of luciferase is then determined by cell lysis and reading of the light output from the expressed luciferase gene utilising a plate luminometer.
Luciferase Assay for 96 Well Plates
The H2K/mdx/Utro A reporter cell line cells were plated out into 96 well plates (Falcon 353296, white opaque) at a density of approximately 5000 cells/well in 190 μl normal growth medium. The plates were then incubated at 33° C. in the presence of 10% CO2 for 24 hrs.
Compounds were dosed by adding 10 μl of diluted compound to each well giving a final concentration of 10 μM (where a different final concentration was required, the amount of compound solution added was amended accordingly). The plates were then incubated for a further 48 hrs. Cells were then lysed in situ following the manufacture's protocols (Promega Steady-Glo Luciferase Assay System(E2520). Then counted for 10 seconds using a plate luminometer (Victor1420).
Compounds for screening were stored at −20° C. as 10 mM stocks in 100% DMSO until required.
Biological activity as assessed using the luciferase reporter assay in murine H2K cells, and the results are shown in Table 1, which also lists the concentration of the test compound solution in μM.
Background: Reporter assays use an easily measured gene product as a stand-in for the process of interest.
In the case of `CS(=O)(=O)c1ccc(Cn2nc(CNc3ccc4c(c3)OCO4)c3ccccc32)cc1` [Compound 90, N-((1-(4-(methylsulfonyl)benzyl)-1H-indazol-3-yl)methyl)benzo[d][1,3]dioxol-5-amine], the activity at 0.3 µM is less than 200%.

The test is the same for the next values; noted with them: 48 h; test compound concentration 3 μM; mdx mouse H2K Utrophin A reporter cells; read-out: Activity (luciferase level relative to control).
As for `CS(=O)(=O)c1ccc(Cn2nc(C(=O)Nc3ccc(O)cc3)c3ccccc32)cc1` [Compound 88, N-(4-hydroxyphenyl)-1-(4-(methylsulfonyl)benzyl)-1H-indazole-3-carboxamide], the activity at 3 µM was less than 200%.

Still in this test, the particulars now being: 48 h; test compound concentration 10 μM; mdx mouse H2K Utrophin A reporter cells; read-out: Activity (luciferase level relative to control).
Regarding `O=C(Nc1ccc2c(c1)OCO2)c1nn(CCOc2ccccc2)c2ccccc12` [Compound 58, N-(benzo[d][1,3]dioxol-5-yl)-1-(2-phenoxyethyl)-1H-indazole-3-carboxamide], the activity at 10 µM was in the range of 201 to 300%.
Regarding `Cc1ccc(NC(=O)Nc2nn(Cc3ccc(C(F)(F)F)cc3)c3ccccc23)cc1` [Compound 59, 1-p-tolyl-3-(1-(4-(trifluoromethyl)benzyl)-1H-indazol-3-yl)urea], the activity at 10 µM was less than 200%.
For the compound `CC(C)c1ccc(NC(=O)c2nn(CCOc3ccc(F)cc3)c3ccccc23)cc1` [Compound 60, 1-(2-(4-fluorophenoxy)ethyl)-N-(4-isopropylphenyl)-1H-indazole-3-carboxamide], the activity at 10 µM was less than 200%.
As for `O=C(Nc1ccc(OC(F)(F)F)cc1)c1nn(Cc2ccc(C(=O)N3CCOCC3)cc2)c2ccccc12` [Compound 61, 1-(4-(morpholine-4-carbonyl)benzyl)-N-(4-(trifluoromethoxy)phenyl)-1H-indazole-3-carboxamide], the activity at 10 µM is more than 401%.
On the same count and under the same terms, to `CC(C)c1ccc(NC(=O)c2nn(Cc3ccc(S(C)(=O)=O)cc3)c3ccccc23)cc1` [Compound 62, N-(4-isopropylphenyl)-1-(4-(methylsulfonyl)benzyl)-1H-indazole-3-carboxamide] belongs 301 to 400%; to `O=C(Nc1ccc2c(c1)OCO2)c1nn(Cc2ccc(C(=O)N3CCOCC3)cc2)c2ccccc12` [Compound 63, N-(benzo[d][1,3]dioxol-5-yl)-1-(4-(morpholine-4-carbonyl)benzyl)-1H-indazole-3-carboxamide], more than 401%; to `NC(=O)c1ccc(NC(=O)c2nn(Cc3ccc(S(=O)(=O)N4CCOCC4)cc3)c3ccccc23)cc1` [Compound 64, N-(4-carbamoylphenyl)-1-(4-(morpholinosulfonyl)benzyl)-1H-indazole-3-carboxamide], less than 200%.
On to `COc1ccc(NC(=O)c2nn(Cc3ccc(C(C)(C)C)cc3)c3ccccc23)cc1` [Compound 65, 1-(4-tert-butylbenzyl)-N-(4-methoxyphenyl)-1H-indazole-3-carboxamide], for which the activity at 10 µM fell in the range of 201 to 300%.
The same measure, in the same setting: to `C#CCN(C)S(=O)(=O)c1ccc(Cn2nc(C(=O)Nc3ccc(C(C)C)cc3)c3ccccc32)cc1` [Compound 66, N-(4-isopropylphenyl)-1-(4-(N-methyl-N-(prop-2-ynyl)sulfamoyl)benzyl)-1H-indazole-3-carboxamide] belongs less than 200%; to `O=C(Nc1ccccn1)c1nn(CCOc2ccc(F)cc2)c2ccccc12` [Compound 67, 1-(2-(4-fluorophenoxy)ethyl)-N-(pyridin-2-yl)-1H-indazole-3-carboxamide], less than 200%; to `COc1cccc(OCc2ccc(Cn3nc(NC(=O)Nc4ccccc4OC(F)(F)F)c4ccccc43)cc2)c1` [Compound 68, 1-(1-(4-((3-methoxyphenoxy)methyl)benzyl)-1H-indazol-3-yl)-3-(2-(trifluoromethoxy)phenyl)urea], less than 200%.
On the same count and under the same terms, with `O=C(Nc1ccc(N2CCCCC2)cc1)c1nn(Cc2ccc(-c3ccccc3)cc2)c2ccccc12` [Compound 69, 1-(biphenyl-4-ylmethyl)-N-(4-(piperidin-1-yl)phenyl)-1H-indazole-3-carboxamide] the figure was less than 200%.
Still for that read-out and setting: with `CC(C)(C)c1ccc(Cn2nc(C(=O)Nc3ccc(OC(F)(F)F)cc3)c3ccccc32)cc1` [Compound 70, 1-(4-tert-butylbenzyl)-N-(4-(trifluoromethoxy)phenyl)-1H-indazole-3-carboxamide] the figure was less than 200%; with `O=C(Nc1nccs1)c1nn(CCOc2ccccc2)c2ccccc12` [Compound 71, 1-(2-phenoxyethyl)-N-(thiazol-2-yl)-1H-indazole-3-carboxamide], less than 200%; with `O=C(NCC1CCCO1)c1nn(Cc2ccc(C(=O)N3CCOCC3)cc2)c2ccccc12` (stereo not shown) [Compound 72, 1-(4-(morpholine-4-carbonyl)benzyl)-N-((tetrahydrofuran-2-yl)methyl)-1H-indazole-3-carboxamide], less than 200%.
For `COc1ccc(CCNC(=O)Nc2nn(Cc3ccc(C(F)(F)F)cc3)c3ccccc23)cc1OC` [Compound 73, 1-(3,4-dimethoxyphenethyl)-3-(1-(4-(trifluoromethyl)benzyl)-1H-indazol-3-yl)urea], the activity at 10 µM is less than 200%.
Take `COc1ccc(NC(=O)c2nn(Cc3ccc(-c4ccccc4)cc3)c3ccccc23)cc1` [Compound 74, 1-(biphenyl-4-ylmethyl)-N-(4-methoxyphenyl)-1H-indazole-3-carboxamide]: the activity at 10 µM is less than 200%.
Still for that read-out and setting: to `O=C(Nc1ccc(N2CCCCC2)cc1)c1nn(CCOc2ccccc2)c2ccccc12` [Compound 75, 1-(2-phenoxyethyl)-N-(4-(piperidin-1-yl)phenyl)-1H-indazole-3-carboxamide] belongs 201 to 300%; to `C#CCN(C)S(=O)(=O)c1ccc(Cn2nc(C(=O)Nc3ccc(C(N)=O)cc3)c3ccccc32)cc1` [Compound 76, N-(4-carbamoylphenyl)-1-(4-(N-methyl-N-(prop-2-ynyl)sulfamoyl)benzyl)-1H-indazole-3-carboxamide], less than 200%; to `CS(=O)(=O)c1ccc(Cn2nc(C(=O)Nc3ccccn3)c3ccccc32)cc1` [Compound 77, 1-(4-(methylsulfonyl)benzyl)-N-(pyridin-2-yl)-1H-indazole-3-carboxamide], less than 200%.
In the case of `COc1ccccc1CNC(=O)Nc1nn(Cc2cc3c(cc2Cl)OCO3)c2ccccc12` [Compound 78, 1-(1-((6-chlorobenzo[d][1,3]dioxol-5-yl)methyl)-1H-indazol-3-yl)-3-(2-methoxybenzyl)urea], the activity at 10 µM is less than 200%.
On the same count and under the same terms, to `CC(C)(C)c1ccc(Cn2nc(C(=O)Nc3ccc(N4CCCCC4)cc3)c3ccccc32)cc1` [Compound 79, 1-(4-tert-butylbenzyl)-N-(4-(piperidin-1-yl)phenyl)-1H-indazole-3-carboxamide] belongs less than 200%; to `COc1ccc(CCNC(=O)Nc2nn(Cc3ccc(COc4cccc(OC)c4)cc3)c3ccccc23)cc1` [Compound 80, 1-(4-methoxyphenethyl)-3-(1-(4-((3-methoxyphenoxy)methyl)benzyl)-1H-indazol-3-yl)urea], less than 200%; to `CC(C)(C)c1ccc(NC(=O)c2nn(Cc3ccc(S(C)(=O)=O)cc3)c3ccccc23)cc1` [Compound 81, N-(4-tert-butylphenyl)-1-(4-(methylsulfonyl)benzyl)-1H-indazole-3-carboxamide], less than 200%.
The same measure, in the same setting: with `COc1ccc(NC(=O)c2nn(Cc3ccc(S(C)(=O)=O)cc3)c3ccccc23)cc1OC` [Compound 82, N-(3,4-dimethoxyphenyl)-1-(4-(methylsulfonyl)benzyl)-1H-indazole-3-carboxamide] the figure was less than 200%; with `CS(=O)(=O)c1ccc(Cn2nc(C(=O)Nc3ccccc3)c3ccccc32)cc1` [Compound 83, N-phenyl-1-(4-(methylsulfonyl)benzyl)-1H-indazole-3-carboxamide], less than 200%.
Same read-out and setting: to `CCc1ccc(NC(=O)c2nn(Cc3ccc(S(C)(=O)=O)cc3)c3ccccc23)cc1` [Compound 84, N-(4-ethylphenyl)-1-(4-(methylsulfonyl)benzyl)-1H-indazole-3-carboxamide] belongs 301 to 400%; to `CC(C)c1ccccc1NC(=O)c1nn(Cc2ccc(S(C)(=O)=O)cc2)c2ccccc12` [Compound 85, N-(2-isopropylphenyl)-1-(4-(methylsulfonyl)benzyl)-1H-indazole-3-carboxamide], less than 200%; to `COc1cccc(NC(=O)c2nn(Cc3ccc(S(C)(=O)=O)cc3)c3ccccc23)c1` [Compound 86, N-(3-methoxyphenyl)-1-(4-(methylsulfonyl)benzyl)-1H-indazole-3-carboxamide], less than 200%.
For the compound `O=C(Nc1ccc2c(c1)OCO2)c1nn(Cc2ccccc2)c2ccccc12` [Compound 87, N-(benzo[d][1,3]dioxol-5-yl)-1-benzyl-1H-indazole-3-carboxamide], the activity at 10 µM is less than 200%.
On the same count and under the same terms, with `CS(=O)(=O)c1ccc(Cn2nc(C(=O)Nc3ccc(Cl)cc3)c3ccccc32)cc1` [Compound 89, N-(4-chlorophenyl)-1-(4-(methylsulfonyl)benzyl)-1H-indazole-3-carboxamide] the figure was 201 to 300%; with `CC(C)c1ccc(Cn2nc(C(=O)Nc3ccc(S(C)(=O)=O)cc3)c3ccccc32)cc1` [Compound 91, 1-(4-isopropylbenzyl)-N-(4-(methylsulfonyl)phenyl)-1H-indazole-3-carboxamide], less than 200%.

Source of the values: patent US20100305120A1, “COMPOUNDS FOR TREATING MUSCULAR DYSTROPHY” (BIOMARIN IGA LIMITED, priority 2008, published 2010).
